Results reported in patent US8969390B2, “Composition containing sorbitan monocaprylate and antimicrobial substances” (Clariant Finance (BVI) Limited, priority 2009, dated 2015).

How the values were obtained:
[1] = test system: Pseudomonas aeruginosa, Staphylococcus aureus, Candida albicans and Aspergillus brasiliensis; test: Challenge test according to Ph. Eur. Chapter 5.1.3, overall preservation (all test organisms); assay type: cell-based; details: formulation A (cream)
Protocol: (§1) The following examples show results of challenge tests that were carried out according to the requirements of Ph. Eur. Chapter 5.1.3. The following test organisms are used here as representatives for microorganisms: Pseudomonas aeruginosa (gram-negative; abbreviated below as “P. a.”), Staphylococcus aureus (gram-positive; abbreviated below as “St. a.”), Candida albicans (yeast fungus; abbreviated below as “C. a.”) and Aspergillus brasiliensis (mold fungus; abbreviated below as “A. b.”). In a challenge test, a cosmetic, dermatological or pharmaceutical formulation is accurately considered as adequately preserved if all four test organisms are passed at least with a B criterion. An A criterion means an outstanding preservation, a B criterion, means an adequate preservation and with an F criterion the test is considered overall as not passed. As a comparison, an unpreserved sample of the respective formulation is additionally tested. The further abbreviations SC=sorbitan monocaprylate, Octopirox®=piroctone olamine apply below.
(§2) The assignment of the A, B and F criteria is directed by the level of the microorganism count reduction within a fixed time interval, in which only the logarithmic reduction is considered.

Aspergillus brasiliensis = test: Challenge test according to Ph. Eur. Chapter 5.1.3, Aspergillus brasiliensis; assay type: cell-based; details: formulation B (shampoo), use concentration 0.05% piroctone olamine
Protocol: as §1, §2

Q: With `O=C(O)c1ccccc1` [Benzoic acid, benzoic acid, reference compound] as the compound, how does the “adequate preservation of formulation A” value ([1]; 0.4% benzoic acid as individual antimicrobial active ingredient) read?
A: Its value is “does not suffice”.

Q: With `Cc1cc(CC(C)CC(C)(C)C)n(O)c(=O)c1.NCCO` (stereo not drawn) [Octopirox ®, piroctone olamine] as the compound, how does the “protection of formulation B against growth of mold fungi” value (Aspergillus brasiliensis) read?
A: The value was “cannot adequately protect”.

Q: And the “adequate preservation of formulation A” value ([1]; use concentration 0.05% piroctone olamine)?
A: Its value is “cannot be preserved adequately”.
